Data: patent EP3714904B1, “IMINODIACETIC ACID SUBSTITUTED CYCLODEXTRINS AS POTENTIATORS OF BETA-LACTAM ANTIBIOTICS” (NATIONAL CENTER FOR SCIENTIFIC RESEARCH "DEMOKRITOS" (NCSRD), priority 2019, dated 2020)
Like-named read-outs stand apart in the source and are kept apart here.

How the values were obtained:
NDM-1 = NDM-1 (Klebsiella pneumoniae, UniProt C7C422); assay: Spectrophotometric IC50 determination against MBL; type: biochemical; settings: ± 0.32
VIM-1 = VIM-1 (Pseudomonas aeruginosa, UniProt A0A0F7KYQ8); assay: Spectrophotometric IC50 determination against MBL; type: biochemical; settings: ± 1.07
Acinetobacter baumannii = assay: MIC of β-lactams alone or with 50 µM IDACYD against clinical isolates; type: cell-based; settings: for MIC: Acinetobacter baumannii, alone
Experimental: (§1) Further the in-vitro inhibitory activity of IDACYDs was tested against highly resistant pathogens. Tables 3, 4 and 5 show the effect of IDACYDs using a collection of 36 highly resistant Gram negative strains (Table 2, Kirby-Bauer disc diffusion method) producing NDM, VIM and IMP type MBLs as well as 6 isolates expressing serine beta-lactamases (ESBLs, AmpCs). […] Clinical isolates co-expressing ESBLs and/or AmpC β-lactamases along with MBLs where re-sensitized to both imipenem and meropenem, as expected. Table 2: Collection of clinical isolates used for in-vitro evaluation

Enterobacter gergoviae = assay: as above; type: cell-based; settings: for MIC: Pluralibacter gergoviae, alone
Experimental: as §1

Escherichia coli = assay: as above; type: cell-based; settings: for MIC: Escherichia coli, alone
Experimental: as §1

Proteus mirabilis = assay: as above; type: cell-based; settings: for MIC: Proteus mirabilis, alone
Experimental: as §1

Providencia stuartii = assay: as above; type: cell-based; settings: for MIC: Providencia stuartii, alone
Experimental: as §1

Serratia marcescens = assay: as above; type: cell-based; settings: isolate EUG-815 (VIM, CMY)
Experimental: as §1

[1] = test system: MBL producing clinical strains; assay: MIC potentiation over the whole collection of isolates; type: cell-based; settings: 50 µM β-IDACYD
Experimental: as §1

[2] = test system: VIM-1 producing K. pneumoniae SEC-4; assay: Neutropenic murine thigh infection model; type: in vivo, CD-1 mice; settings: 30 mg/kg imipenem + 10 mg/kg β-IDACYD intravenously, 2 h intervals for 24 hours
Experimental: Example 6. In-vivo murine thigh infection model: A murine thigh infection model was utilized based on the biodistribution results. In a neutropenic mouse thigh infection model was administered intravenously a therapeutic scheme of either 30 mg/kg imipenem or 30 mg/kg imipenem co-administered with 10 mg/kg β-IDACYD in 2 h intervals for 24 hours. At the end of the treatment the bacterial burden of the thigh was reduced by 0.5 log10 in the presence of 10 mg/kg β-IDACYD compared to that of the antibiotic monotherapy.
Twenty, 10 weeks old female (CD-1) mice were rendered neutropenic by administration of two doses of cyclophosphamide (150 mg/kg and 100 mg/kg per mouse on days -4 and -1, respectively). On day 0, all mice were challenged with 0.1 mL of a 10^7 CFU/mL of VIM-1 producing K. pneumoniae SEC-4 by intramuscular injection in the right thigh. From the six mice in the control group that were treated with normal saline (Group A), two mice were sacrificed 2 hours post inoculation while the other mice in groups of seven mice each were intravenously treated with 30 mg/kg imipenem (Group B) or 30 mg/kg imipenem along with 10 mg/kg β-IDACYD (Group C) at 2 hour intervals for 24 hours. At 6-hours post inoculation two mice of group 1 as well as three mice of each of groups 2 and 3 were sacrificed and their thighs were aseptically removed. […]

[3] = Plasma levels of metal ions, creatinine and urea in infected mice; type: in vivo, CD-1 mice; settings: 30 mg/kg meropenem + 20 mg/kg β-IDACYD every 2 h for 24 h, 0 h, 6 h, 140 h
Experimental: Example 10. Examination of the cross-reactivity of β-IDACYD with vital metal ions in mouse plasma and of induction of immune responses in infected mice: In order to examine a potential cross-reactivity of the β-IDACYD with metal ions necessary for the maintenance of homeostasis, plasma was isolated by centrifugation (3,000 rpm, 5 min) from all blood samples collected. The plasma levels of four metal ions (calcium, magnesium, phosphate and iron) as well as the levels of creatinine and urea were determined using an Olympus AU 600 analyser. […] In Fig. 8 is shown the plasma concentration in mg/dL of calcium, iron, phosphate and magnesium ions, as well as urea and creatinine derived from CD-1 mice infected with a lethal dose (10^7 CFU) of NDM-1 producing K. pneumoniae strain LA26. […] Treatment was given every 2h for a 24h period and blood was drawn and plasma was isolated at time points 0h, 6h, 24h and 140h (7d) post treatment initiation.

[4] = Luminex assay of lymphokines, cytokines and pro-inflammatory proteins in plasma of infected mice; type: in vivo; settings: plasma from all the sepsis therapeutic schemes
From the text: As a way to further measure and evaluate the in-vivo potency and safety of β-IDACYD, we determined the levels of a series of lymphokines, cytokines, and pro-inflammatory indicator proteins. The levels of Th17 immune response related ILs 17E, 6, 1β, 4, 21, 10, 17A, 17F, IFN-g, MIP-3a, TNF-a and TNF-b were all determined in a luminex assay using plasma isolated from the mice involved in all the sepsis therapeutic schemes. […] The observation was supported by the levels of the inflammatory response proteins CRP and SAP.

Sequence of NDM-1 (C7C422 29-270, looked up): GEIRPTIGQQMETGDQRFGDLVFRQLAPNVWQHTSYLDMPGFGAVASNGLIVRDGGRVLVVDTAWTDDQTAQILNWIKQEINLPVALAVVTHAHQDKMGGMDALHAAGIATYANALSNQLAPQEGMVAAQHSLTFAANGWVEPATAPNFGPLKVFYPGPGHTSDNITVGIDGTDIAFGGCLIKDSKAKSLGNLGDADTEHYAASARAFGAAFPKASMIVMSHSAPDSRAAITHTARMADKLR

With `CO[C@@H]1[C@@H](OC)[C@H]2O[C@H]3[C@H](OC)[C@@H](OC)[C@@H](O[C@H]4[C@H](OC)[C@@H](OC)[C@@H](O[C@H]5[C@H](OC)[C@@H](OC)[C@@H](O[C@H]6[C@H](OC)[C@@H](OC)[C@@H](O[C@H]7[C@H](OC)[C@@H](OC)[C@@H](O[C@H]8[C@H](OC)[C@@H](OC)[C@@H](O[C@@H]1[C@@H](CN(CC(=O)O)CC(=O)O)O2)O[C@@H]8CN(CC(=O)O)CC(=O)O)O[C@@H]7CN(CC(=O)O)CC(=O)O)O[C@@H]6CN(CC(=O)O)CC(=O)O)O[C@@H]5CN(CC(=O)O)CC(=O)O)O[C@@H]4CN(CC(=O)O)CC(=O)O)O[C@@H]3CN(CC(=O)O)CC(=O)O` [β-IDACYD] the IC50 (NDM-1) was 1.63 µM, the IC50 (VIM-1) was 15 µM and the “Imipenem /50µM β-IDACYD MIC” value (Acinetobacter baumannii; isolate TZAN-40 (VIM, OXA-58)) was 0.25 µg/mL. For the same compound, the “Meropenem /50µM β-IDACYD MIC” value (Acinetobacter baumannii; isolate TZAN-40 (VIM, OXA-58)) was 2 µg/mL, the “Imipenem /50µM β-IDACYD MIC” value (Acinetobacter baumannii; isolate TZAN-42 (VIM, OXA-58)) was 2 µg/mL and the “Meropenem /50µM β-IDACYD MIC” value (Acinetobacter baumannii; isolate TZAN-42 (VIM, OXA-58)) was 8 µg/mL. For the same compound, the “Imipenem /50µM β-IDACYD MIC” value (Enterobacter gergoviae; isolate AK-5227 (VIM, CMY)) was 1 µg/mL, the “Meropenem /50µM β-IDACYD MIC” value (Enterobacter gergoviae; isolate AK-5227 (VIM, CMY)) was <0.25 µg/mL and the “Imipenem /50µM β-IDACYD MIC” value (Enterobacter gergoviae; isolate AK-5240 (VIM, CMY)) was <0.125 µg/mL. The “Meropenem /50µM β-IDACYD MIC” value (Enterobacter gergoviae; isolate AK-5240 (VIM, CMY)) was <0.25 µg/mL, the “Ceftazidime/ 50µM β-IDACYD MIC” value (Escherichia coli; isolate TZAN-116 (VIM)) was <0.25 µg/mL and the “Imipenem /50µM β-IDACYD MIC” value (Escherichia coli; isolate TZAN-116 (VIM)) was <0.125 µg/mL. For the same compound, the “Meropenem /50µM β-IDACYD MIC” value (Escherichia coli; isolate TZAN-116 (VIM)) was <0.25 µg/mL, the “Imipenem /50µM β-IDACYD MIC” value (Escherichia coli; isolate TZAN-541 (VIM)) was <0.125 µg/mL and the “Meropenem /50µM β-IDACYD MIC” value (Escherichia coli; isolate TZAN-541 (VIM)) was <0.25 µg/mL. For the same compound, the “Imipenem /50µM β-IDACYD MIC” value (Proteus mirabilis; isolate ALX-13 (VIM, VEB)) was 1 µg/mL, the “Meropenem /50µM β-IDACYD MIC” value (Proteus mirabilis; isolate ALX-13 (VIM, VEB)) was 0.5 µg/mL and the “Imipenem /50µM β-IDACYD MIC” value (Proteus mirabilis; isolate ESDY-17 (VIM, CMY)) was <0.125 µg/mL. For the same compound, the “Meropenem /50µM β-IDACYD MIC” value (Proteus mirabilis; isolate ESDY-17 (VIM, CMY)) was <0.25 µg/mL, the “Ceftazidime/ 50µM β-IDACYD MIC” value (Proteus mirabilis; isolate ESDY-15184 (VIM, CMY)) was <0.25 µg/mL and the “Imipenem /50µM β-IDACYD MIC” value (Proteus mirabilis; isolate ESDY-15184 (VIM, CMY)) was 0.125 µg/mL. The “Meropenem /50µM β-IDACYD MIC” value (Proteus mirabilis; isolate ESDY-15184 (VIM, CMY)) was <0.25 µg/mL, the “Imipenem /50µM β-IDACYD MIC” value (Proteus mirabilis; isolate ESDY-15315 (VIM, CMY)) was <0.125 µg/mL and the “Meropenem /50µM β-IDACYD MIC” value (Proteus mirabilis; isolate ESDY-15315 (VIM, CMY)) was <0.25 µg/mL. The “Ceftazidime/ 50µM β-IDACYD MIC” value (Providencia stuartii; isolate ALX- 21 (VIM, VEB)) was 16 µg/mL, the “Imipenem /50µM β-IDACYD MIC” value (Providencia stuartii; isolate ALX- 21 (VIM, VEB)) was 0.25 µg/mL and the “Meropenem /50µM β-IDACYD MIC” value (Providencia stuartii; isolate ALX- 21 (VIM, VEB)) was <0.25 µg/mL. For the same compound, the “Imipenem /50µM β-IDACYD MIC” value (Providencia stuartii; isolate ALX-27 (VIM)) was <0.125 µg/mL, the “Meropenem /50µM β-IDACYD MIC” value (Providencia stuartii; isolate ALX-27 (VIM)) was <0.25 µg/mL and the “Ceftazidime/ 50µM β-IDACYD MIC” value (Providencia stuartii; isolate ESDY-4559 (VIM)) was <0.25 µg/mL. The “Imipenem /50µM β-IDACYD MIC” value (Providencia stuartii; isolate ESDY-4559 (VIM)) was <0.125 µg/mL, the “Meropenem /50µM β-IDACYD MIC” value (Providencia stuartii; isolate ESDY-4559 (VIM)) was <0.25 µg/mL and the “Imipenem /50µM β-IDACYD MIC” value (Providencia stuartii; isolate ESDY-4563 (VIM, VEB)) was <0.125 µg/mL. The “Meropenem /50µM β-IDACYD MIC” value (Providencia stuartii; isolate ESDY-4563 (VIM, VEB)) was <0.25 µg/mL, the “Ceftazidime/ 50µM β-IDACYD MIC” value (Serratia marcescens) was <0.25 µg/mL and the “Imipenem /50µM β-IDACYD MIC” value (Serratia marcescens) was <0.125 µg/mL. The “Meropenem /50µM β-IDACYD MIC” value (Serratia marcescens) was <0.25 µg/mL, the “reduction of meropenem's and imipenem's minimum inhibitory concentration (MIC)” value [1] was “up to 256 fold” and the “reduction of bacterial burden of the thigh compared to antibiotic monotherapy” value [2] was 0.5 log10. For the same compound, the “plasma levels of calcium, magnesium, phosphate, iron, creatinine and urea” value [3] was “well within the control group range at all times”, the “immune response (Th17 related ILs, IFN-g, MIP-3a, TNF-a, TNF-b; CRP, SAP)” value [4] was “at no times induced an immune response” and the “cell morphology under a microscope” value (L929 fibroblast cells) was “did not present any morphological differences characteristic of cytotoxicity”.
Compound `C[C@@H](O)[C@H]1C(=O)N2C(C(=O)O)=C(S[C@@H]3CN[C@H](C(=O)N(C)C)C3)[C@H](C)[C@H]12` [Meropenem, reference compound] has an MIC (Acinetobacter baumannii; read-out: Meropenem MIC, isolate TZAN-40 (VIM, OXA-58)) of 4 µg/mL, an MIC (Acinetobacter baumannii; read-out: Meropenem MIC, isolate TZAN-42 (VIM, OXA-58)) of 32 µg/mL and an MIC (Enterobacter gergoviae; read-out: Meropenem MIC, isolate AK-5227 (VIM, CMY)) of 2 µg/mL. For the same compound, the MIC (Enterobacter gergoviae; read-out: Meropenem MIC, isolate AK-5240 (VIM, CMY)) was 1 µg/mL, the MIC (Escherichia coli; read-out: Meropenem MIC, isolate TZAN-116 (VIM)) was 1 µg/mL and the MIC (Escherichia coli; read-out: Meropenem MIC, isolate TZAN-541 (VIM)) was 2 µg/mL. The MIC (Proteus mirabilis; read-out: Meropenem MIC, Table 5, Pr m ESDY 15315 (VIM-1, CMY)) was 16 µg/mL, the MIC (Proteus mirabilis; read-out: Meropenem MIC, isolate ALX-13 (VIM, VEB)) was 32 µg/mL and the MIC (Proteus mirabilis; read-out: Meropenem MIC, isolate ESDY-17 (VIM, CMY)) was 0.25 µg/mL. The MIC (Proteus mirabilis; read-out: Meropenem MIC, isolate ESDY-15184 (VIM, CMY)) was 2 µg/mL, the MIC (Proteus mirabilis; read-out: Meropenem MIC, isolate ESDY-15315 (VIM, CMY)) was 4 µg/mL and the MIC (Providencia stuartii; read-out: Meropenem MIC, isolate ALX- 21 (VIM, VEB)) was 2 µg/mL. For the same compound, the MIC (Providencia stuartii; read-out: Meropenem MIC, isolate ALX-27 (VIM)) was 2 µg/mL, the MIC (Providencia stuartii; read-out: Meropenem MIC, isolate ESDY-4559 (VIM)) was 4 µg/mL and the MIC (Providencia stuartii; read-out: Meropenem MIC, isolate ESDY-4563 (VIM, VEB)) was 2 µg/mL. The MIC (Serratia marcescens; Serratia marcescens, read-out: Meropenem MIC, alone) was 256 µg/mL.
